These substances were tested on Male NMRI (SPF) mice fed a low-iron diet (assay: Iron utilization in mouse model (low-iron diet)). Settings: stomach tube, 2 mg iron/kg body weight/day, days 1-5 and 8-12; utilization on day 15 calculated from hemoglobin increase and body weight increase.
Format: in vivo
Method: The excellent Fe utilizations that can be accomplished through the Fe complexes according to the invention were measured by means of the following mouse model.
Male NMRI (SPF) mice (approximately 3 weeks old) were fed a low-iron diet (approx. 5 ppm iron) for approximately 3 weeks. The iron complexes were then administered to them by means of a stomach tube (2 mg iron/kg body weight/day) for 2 times 5 days, with an interruption of 2 days (days 1-5 and 8-12). 6 mice were the control group (negative control) and were administered with water instead. Utilization on day 15 was calculated from the hemoglobin increase and the body weight increase in accordance with the formula
[formula] • 0.07=Factor for 70 ml blood per kg body weight (BW) • 0.0034=Factor for 0.0034 g Fe/g Hb • Hb1=Hemoglobin level (g/l) on day 1 • Hb2(3)=Hemoglobin level (g/l) on day 8 (or 15) • BW4=body weight (g) on day 1 • BW9(14)=body weight (g) on day 8 (or 15) • Hb1 Control=average hemoglobin level (g/l) on day 1 in the control group, • Hb2(3) Control=average hemoglobin level (g/l) on day 8 (or 15) in the control group, • BW4 Control=average body weight (g) on day 1 in the control group, • BW9(14) Control=average body weight (g) on day 8 (or 15) in the control group, • Fe Dos.=entire administered iron (mg Fe) over 5 or 10 days, • Fe ut.=(Hb2(3)*BW9(14)−Hb1*BW4)*0.07*0.0034 (mg Fe) • Δ Utilization=Fe tot. utilized (examined group)−Fe ut. Control group, utilized from food, (mg Fe)

| Substance | Utilization n 15 d (abs. %) |
| --- | --- |
| Tris-(3-hydroxy-N,N-dimethylisonicotinamide) iron(III) complex [Example 1] | 68 abs. % |
| Tris-(3-hydroxy-N-(2-methoxyethyl)isonicotinamide) iron(III) complex [Example 7] | 76 abs. % |
| Tris-(N-butyl-3-hydroxyisonicotinamide) iron(III) complex [Example 6] | 76 abs. % |
